Like-named read-outs stand apart in the source and are kept apart here.
Legend:
H 460 (lung carcinoma) = assay: Cytostatic activity, MTT assay; type: cell-based, human; details: read-out: Tumour cell growth/IC50 H 460
Description: (§1) The experiments were carried out on six human tumour and one murine cell lines, which are derived from five solid tumour types and two (one murine and one human) suspension tumour cell lines. The following cell lines were used: HCT 116 (colon carcinoma), SW 620 (colon carcinoma), MCF-7 (breast carcinoma), H 460 (lung carcinoma), L1210 (murine leukemia), CEM (human lymphoma) and HeLa (cervix carcinoma). […] Compounds 3d and 3e with a benzene ring in the amide moiety, exerted a somewhat stronger (but still rather poor) cytostatic effect (IC50 ≈ 20-90 µM). […] The compounds were also equally cytostatic against primary human embryonic lung (HEL) fibroblast cells (Table 2). The obtained data clearly point to the obligatory presence of the [4-chloro-3-(trifluoromethyl)phenyl]carbamoyl group being crucial for high potency. Also, the 4a–e series of compounds are far more lipophilic than the 2 and 3 series of compounds, which may be related to their increased cytostatic potential.
(§2) HCT 116, SW 620, MCF-7, and H 460 cells were cultured as monolayers and maintained in Dulbecco’s modified Eagle medium (DMEM), supplemented with 10% fetal bovine serum (FBS), 2 mmol·L^–1 L-glutamine, 100 U·mL^–1 penicillin and 100 μg·mL^–1 streptomycin in a humidified atmosphere with 5% CO2 at 37 °C. The growth inhibition activity was assessed as described previously, according to the slightly modified procedure of the National Cancer Institute, Developmental Therapeutics Program. Briefly, the cells were seeded onto standard 96-well microtiter plates on day 0. The cell concentrations were adjusted according to the cell population doubling time (PDT): 3000 cells/well for HCT116 and SW 620 cell lines (PDT = 20–24 h) and 4,000 cells/well for MCF-7 cell lines (PDT = 33 h). Tested agents were then added in five consecutive 10-fold dilutions (10^–8 to 10^–4 mol·L^–1) and incubated for further 72 h. Working dilutions were freshly prepared on the day of testing. The solvent (DMSO) was also tested for eventual inhibitory activity by adjusting its concentration to be the same as in working concentrations (maximal concentration of DMSO was 0.25%). After 72 h of incubation, the cell growth rate was evaluated by performing the MTT assay (Promega) which detects dehydrogenase activity in viable cells. The absorbency (OD, optical density) was measured on a microplate reader at 570 nm. Each test point was performed in quadruplicate in at least three individual experiments. The results are expressed as IC50, which is the concentration necessary for 50% of inhibition. […] Each result is a mean value from three separate experiments.

[1] = tested on: HCT 116 (colon carcinoma); assay: Cytostatic activity, MTT assay; type: cell-based, human; details: read-out: Tumour cell growth/IC50 HCT 116
Description: as §1, §2

MCF-7 (breast carcinoma) = assay: Cytostatic activity, MTT assay; type: cell-based, human; details: read-out: Tumour cell growth/IC50 MCF-7
Description: as §1, §2

SW 620 (colon carcinoma) = assay: Cytostatic activity, MTT assay; type: cell-based, human; details: read-out: Tumour cell growth/IC50 SW 620
Description: as §1, §2

CEM (human lymphoma) = assay: Cytostatic activity, Coulter counter; type: cell-based; details: 72 h, cell number by Coulter counter, read-out: Tumour cell growth/IC50 CEM
Description: as §1
(§3) The cytostatic activity of the tested compounds against murine leukemia L1210, human cervix carcinoma HeLa, human embrionic lung (HEL) and T-lymphocyte CEM cells was determined with cells grown in suspension (L1210, CEM) or monolayers (HeLa, HEL) in 200 µL-wells of 96-well microtiter plates (initial cell number: 5–7.5 × 10^4 cells/well). After 48 (L1210) or 72 (CEM, HeLa, HEL) h, the tumour cell number was determined by the use of a Coulter counter.

L1210 (murine leukemia) = assay: Cytostatic activity, Coulter counter; type: cell-based; details: 48 h, cell number by Coulter counter, read-out: Tumour cell growth/IC50 L1210
Description: as §1, §3

[2] = tested on: primary human embryonic lung (HEL) fibroblast cells; assay: Cytostatic activity, Coulter counter; type: cell-based; details: 72 h, cell number by Coulter counter, primary fibroblasts
Description: as §1, §3

HeLa (cervix carcinoma) = assay: Cytostatic activity, Coulter counter; type: cell-based, human; details: 72 h, cell number by Coulter counter, read-out: Tumour cell growth/IC50 HeLa
Description: as §1, §3

[3] = tested on: DNA synthesis in CEM cells; assay: Antimetabolic activity: [CH3-3H]dThd incorporation (DNA synthesis) in CEM cell cultures; type: cell-based; details: Homo sapiens, CCRF-CEM, ~20 h, TCA-insoluble material
From the text: (§4) A variety of compounds (2a, 3a, 4a with a cycloalkyl substituent directly attached to nitrogen atom, 2c, 3c, 4c with a cycloalkyl bound to nitrogen through a short spacer and 2e, 3e, 4e with an aromatic substituent) have been investigated on their inhibitory activity against DNA, RNA and protein synthesis in CEM cell cultures. The compounds were equally inhibitory to dThd (DNA synthesis), Urd (RNA synthesis) and Leu (protein synthesis) incorporation into TCA-insoluble cell material. The 2 series of compounds were least inhibitory whereas the 4 series were most inhibitory (IC50 in the lower micromolar range). Their antimetabolic IC50 values closely corresponded to their antiproliferative IC50 values. They also behaved as sorafenib in terms of antimetabolic potential (Table 3).
(§5) The procedures have been modified from previously described methods. Human CEM cells were seeded in 96-well microtiter plates at 10 × 10^4 cells/200 µL-well in the presence of serial dilutions of the tested compounds. Then, 0.25 µCi of [CH3-^3H]dThd (radiospecificity: 52 Ci/mmol) or 1 µCi of [5-^3H]Urd (radiospecificity: 26 Ci/mmol) or [4,5-^3H]Leu (radiospecificity: 160 Ci/mmol) were added and the drug-exposed tumour cell cultures further incubated at 37 °C for ~20 h. Then the content of each well was transfered to glass fiber discs (Wattman, GE Healthcare, Maidstone, UK), mounted on a manifold (Millipore, Billerica, MA, USA) and subsequently washed with PBS (to remove the radiolabel material that has not been incorporated in the cellular macromolecules), 10% and 5% trichoroacetic acid (TCA) (to precipitate DNA, RNA and proteins) and ethanol. Then, the radioactivity (TCA precipitate) associated with each disc was determined in a liquid scintillation counter (Packard, Palo Alto, CA, USA).

[4] = tested on: RNA synthesis in CEM cells; assay: Antimetabolic activity: [5-3H]Urd incorporation (RNA synthesis) in CEM cell cultures; type: cell-based; details: Homo sapiens, CCRF-CEM, ~20 h, TCA-insoluble material
From the text: as §4, §5

[5] = tested on: protein synthesis in CEM cells; assay: Antimetabolic activity: [4,5-3H]Leu incorporation (protein synthesis) in CEM cell cultures; type: cell-based; details: Homo sapiens, CCRF-CEM, ~20 h, TCA-insoluble material
From the text: as §4, §5

[6] = tested on: panel of carcinoma, lymphoma and leukemia tumour cell lines; assay: Cytostatic activity across the panel of tumour cell lines; type: cell-based; details: Table 2; read-out: IC50 (cytostatic effect, range over cell lines)
Description: as §1, with “The obtained data clearly point to the obligatory presence of the [4-chloro-3-(trifluoromethyl)phenyl]carbamoyl group being crucial for high potency. Also, the 4a–e series of compounds are far more lipophilic than the 2 and 3 series of compounds, which may be related to their increased cytostatic potential.” left out
HCT 116, SW 620, MCF-7, and H 460 cells were cultured as monolayers and maintained in Dulbecco’s modified Eagle medium (DMEM), supplemented with 10% fetal bovine serum (FBS), 2 mmol·L^–1 L-glutamine, 100 U·mL^–1 penicillin and 100 μg·mL^–1 streptomycin in a humidified atmosphere with 5% CO2 at 37 °C. The growth inhibition activity was assessed as described previously, according to the slightly modified procedure of the National Cancer Institute, Developmental Therapeutics Program. […] After 72 h of incubation, the cell growth rate was evaluated by performing the MTT assay (Promega) which detects dehydrogenase activity in viable cells. The absorbency (OD, optical density) was measured on a microplate reader at 570 nm. […]

CaCo-2 cell cultures = assay: Uptake at apical side and release at basolateral side of CaCo-2 cell cultures; type: in vitro ADME, human; details: 100 µmol·L^–1 at apical side, 0-24 h, HPLC
From the text: Derivatives 2a, 3a and 4a have been examined for their efficiency of uptake at the apical site and subsequent delivery at the basolateral site of colon carcinoma CaCo-2 cell cultures. This model system can be used to predict the potential of a drug to show oral bioavailability. Sorafenib was included as the reference compound. […] The molecular basis of this phenomenon is yet unclear.
Figure 1 Release of the tested compounds at the basolateral side by CaCo-2 cell cultures. Hundred micromolar concentrations of the tested compounds were added at the apical side of confluent CaCo-2 cell cultures, and the appearance of the intact tested compound at the basolateral side was measured by HPLC analysis.
Human colon carcinoma CaCo-2 cells were seeded in the inner wells of a double-chamber-well-tray at 150,000 cells (0.5 mL) per 1 mL-well. The outer wells also contain 0.5 mL medium (without cells). After the cells were grown to confluency (~2 days) at 37 °C in a humidified CO2-controlled atmosphere, 100 µmol·L^–1 tested compound (final concentration) was added to the inner well, and the medium from the outer wells was replaced by 800 µL PBS (containing 10% foetal bovine serum). At different time points (i.e., 0, 2, 4, 6, 8 and 24 h), 50 µL was removed from the outer wells and mixed with 100 µL cold methanol. The mixture was left on ice for 10 min, centrifuged to remove the precipitate, and the supernatant was analysed by HPLC (reversed phase) to determine the drug concentration that appeared in the outer wells (reflecting basolateral drug efflux) in function of time.

23 cell lines = tested on: 23 cell lines; parameters: method as in PMID 20672370; details: median over 23 cell lines; cited from earlier work

Row | SMILES | IC50 (H 460 (lung carcinoma); Homo sapiens, NCI-H460, 72 h) [µM] | IC50 ([1]; Homo sapiens, HCT-116, 72 h) [µM] | IC50 (MCF-7 (breast carcinoma); Homo sapiens, MCF7, 72 h) [µM] | IC50 (SW 620 (colon carcinoma); Homo sapiens, SW-620, 72 h) [µM] | IC50 [3] [µM] | IC50 [4] [µM] | IC50 [5] [µM] | IC50 [6] [µM] | IC50 (CEM (human lymphoma); Homo sapiens) [µM] | IC50 (L1210 (murine leukemia); Mus musculus, L1210) [µM] | IC50 ([2]; Homo sapiens, Fibroblast) [µM] | IC50 (HeLa (cervix carcinoma); Homo sapiens, HeLa) [µM] | Drug delivery at the basolateral site compared with sorafenib (CaCo-2 cell cultures) | other results
1 | Nc1ccc(Oc2ccnc(C(=O)NCCc3ccccc3)c2)cc1 [Compound 3e, 4-(4-Aminophenoxy)-N-phenylethylpyridine-2-carboxamide] | 20 | 25 ± 2 | 34 ± 17 | 20 ± 7 | > 100 | 49.9 ± 17.9 | > 100 | 20 to 90 | 42 ± 3 | 63 ± 8.9 | > 100 | 39 ± 3 | – | –
2 | Nc1ccc(Oc2ccnc(C(=O)NCc3ccccc3)c2)cc1 [Compound 3d, 4-(4-Aminophenoxy)-N-benzylpyridine-2-carboxamide] | 42 ± 9 | 29 ± 4 | 29 ± 13 | 37 ± 6 | – | – | – | 20 to 90 | 94 ± 2.2 | 66 ± 3.1 | > 100 | 94 ± 1.9 | – | –
3 | CNC(=O)c1cc(Oc2ccc(NC(=O)Nc3ccc(Cl)c(C(F)(F)F)c3)cc2)ccn1 [Sorafenib, 4-[4-[[4-chloro-3-(trifluoromethyl)phenyl]carbamoylamino]phenoxy]-N-methylpyridine-2-carboxamide] | – | – | – | – | 8.6 ± 1.1 | 7.1 ± 0.2 | 12 ± 7 | – | – | – | – | – | – | IC50 (H 460 (lung carcinoma); 72 h): 3 ± 0.8 µM; IC50 ([1]; 72 h): 3 ± 0.8 µM; IC50 (MCF-7 (breast carcinoma); 72 h): 3 ± 0.7 µM; IC50 (SW 620 (colon carcinoma); 72 h): 6 ± 1 µM; IC50 (CEM (human lymphoma)): 3.4 ± 0.5 µM; IC50 (L1210 (murine leukemia)): 4.1 µM; IC50 [2]: 7.5 ± 0.7 µM; IC50 (HeLa (cervix carcinoma)): 3.7 ± 0.6 µM; IC50 (23 cell lines): 4.3 µM

Continued, in another order:

Row | IC50 (H 460 (lung carcinoma); Homo sapiens, NCI-H460, 72 h) [µM] | IC50 ([1]; Homo sapiens, HCT-116, 72 h) [µM] | IC50 (MCF-7 (breast carcinoma); Homo sapiens, MCF7, 72 h) [µM] | IC50 (SW 620 (colon carcinoma); Homo sapiens, SW-620, 72 h) [µM] | IC50 [3] [µM] | IC50 [4] [µM] | IC50 [5] [µM] | IC50 [6] [µM] | SMILES | IC50 (CEM (human lymphoma); Homo sapiens) [µM] | IC50 (L1210 (murine leukemia); Mus musculus, L1210) [µM] | IC50 ([2]; Homo sapiens, Fibroblast) [µM] | IC50 (HeLa (cervix carcinoma); Homo sapiens, HeLa) [µM] | Drug delivery at the basolateral site compared with sorafenib (CaCo-2 cell cultures) | other results
4 | 1 | 3 ± 0.5 | 4 ± 1 | 2 ± 0.4 | 12.5 ± 6.7 | 7.7 ± 2.1 | 6.1 ± 0.7 | – | O=C(Nc1ccc(Oc2ccnc(C(=O)NC3CCCC3)c2)cc1)Nc1ccc(Cl)c(C(F)(F)F)c1 [Compound 4a, 4-[4-[[4-Chloro-3-(trifluoromethyl)phenyl]carbamoylamino]phenoxy]-N-cyclopentyl-pyridine-2-carboxamide] | 4.2 ± 0.6 | 4.2 ± 0.8 | 2.8 | 3.1 ± 0.6 | less efficient than the reference compound | –
5 | > 100 | 54 ± 21 | 53 ± 40 | ≥ 100 | > 100 | > 100 | > 100 | – | Nc1ccc(Oc2ccnc(C(=O)NC3CCCC3)c2)cc1 [Compound 3a, 4-(4-Aminophenoxy)-N-cyclopentylpyridine-2-carboxamide] | ≥ 100 | 121 ± 50.5 | > 100 | 77 ± 3.4 | higher drug delivery at the basolateral site than sorafenib | –
6 | ≥ 100 | > 100 | > 100 | > 100 | > 100 | > 100 | > 100 | – | O=C(NC1CCCC1)c1cc(Cl)ccn1 [Compound 2a, 4-Chloro-N-cyclopentylpyridine-2-carboxamide] | > 100 | > 100 | > 100 | > 100 | higher drug delivery at the basolateral site than sorafenib | –

From article PMC6268433, “New Sorafenib Derivatives: Synthesis, Antiproliferative Activity Against Tumour Cell Lines and Antimetabolic Evaluation” (Molecules, 2012)
